In paper PMC3445516 (PLoS ONE, 2012):
Like-named read-outs stand apart in the source and are kept apart here.

Columns and labels:
Test in all cases: Ambit kinase profiling, competition binding
GSK3A = biological target: T1, GSK3A (Homo sapiens, UniProt P49840)
T1 construct: purchased Ambit Biosciences (KINOMEscan)
Method: (§1) Also included in the kinase profile are four isoforms of PKC (δ, ε, η, θ) and eight isoforms of CAMKs (CAMKIα, δ, γ; CAMKIIα, β, δ, γ; CAMK4).
(§2) The global kinase profiling experiment was performed by Ambit Biosciences.

EPHB4 = biological target: T2, EPHB4 (Homo sapiens, UniProt P54760)
T2 construct: purchased Ambit Biosciences (KINOMEscan)
T2 sequence (P54760 16-987): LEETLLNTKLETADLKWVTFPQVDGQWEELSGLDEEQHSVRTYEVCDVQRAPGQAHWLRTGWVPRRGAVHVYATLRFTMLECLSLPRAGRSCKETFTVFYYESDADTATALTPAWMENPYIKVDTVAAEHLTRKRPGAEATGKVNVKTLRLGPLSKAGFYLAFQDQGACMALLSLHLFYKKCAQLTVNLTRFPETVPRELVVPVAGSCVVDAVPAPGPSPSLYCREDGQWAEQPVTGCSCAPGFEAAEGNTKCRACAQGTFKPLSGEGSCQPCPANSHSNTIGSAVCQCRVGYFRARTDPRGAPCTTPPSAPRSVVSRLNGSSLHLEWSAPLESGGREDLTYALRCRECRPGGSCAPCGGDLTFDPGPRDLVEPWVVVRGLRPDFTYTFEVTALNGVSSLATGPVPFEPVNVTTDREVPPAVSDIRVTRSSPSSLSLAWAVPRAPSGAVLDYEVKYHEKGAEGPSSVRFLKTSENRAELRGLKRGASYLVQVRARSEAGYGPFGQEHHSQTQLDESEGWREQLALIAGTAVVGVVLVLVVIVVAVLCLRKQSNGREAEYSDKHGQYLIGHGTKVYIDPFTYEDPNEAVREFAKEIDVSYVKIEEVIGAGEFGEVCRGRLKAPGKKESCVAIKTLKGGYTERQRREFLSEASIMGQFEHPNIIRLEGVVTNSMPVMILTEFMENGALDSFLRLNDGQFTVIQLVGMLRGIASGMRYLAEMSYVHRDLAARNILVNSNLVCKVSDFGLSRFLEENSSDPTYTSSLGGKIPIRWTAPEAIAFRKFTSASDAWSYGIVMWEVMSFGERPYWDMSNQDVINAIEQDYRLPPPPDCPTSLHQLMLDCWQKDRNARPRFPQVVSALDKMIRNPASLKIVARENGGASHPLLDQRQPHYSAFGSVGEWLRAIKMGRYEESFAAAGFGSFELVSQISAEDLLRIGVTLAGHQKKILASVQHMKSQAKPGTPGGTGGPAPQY
Method: as §1, §2

MEK4 = biological target: T3, MEK4 (Homo sapiens, UniProt P45985)
T3 construct: purchased Ambit Biosciences (KINOMEscan)
T3 sequence (P45985 1-399): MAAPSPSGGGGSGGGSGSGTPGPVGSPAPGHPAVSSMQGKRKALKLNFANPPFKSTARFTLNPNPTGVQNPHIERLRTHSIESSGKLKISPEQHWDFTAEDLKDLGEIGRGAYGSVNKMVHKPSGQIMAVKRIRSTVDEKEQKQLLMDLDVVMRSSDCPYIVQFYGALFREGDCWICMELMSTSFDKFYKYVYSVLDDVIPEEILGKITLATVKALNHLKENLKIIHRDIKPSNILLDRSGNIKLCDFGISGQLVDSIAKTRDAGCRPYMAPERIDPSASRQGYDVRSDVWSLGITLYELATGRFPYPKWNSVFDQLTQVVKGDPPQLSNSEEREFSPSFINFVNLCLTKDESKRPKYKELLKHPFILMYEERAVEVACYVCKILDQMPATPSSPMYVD
Method: as §1, §2

ERK8 = biological target: T4, ERK8 (Homo sapiens, UniProt Q8TD08)
T4 construct: purchased Ambit Biosciences (KINOMEscan)
T4 sequence (Q8TD08 1-544): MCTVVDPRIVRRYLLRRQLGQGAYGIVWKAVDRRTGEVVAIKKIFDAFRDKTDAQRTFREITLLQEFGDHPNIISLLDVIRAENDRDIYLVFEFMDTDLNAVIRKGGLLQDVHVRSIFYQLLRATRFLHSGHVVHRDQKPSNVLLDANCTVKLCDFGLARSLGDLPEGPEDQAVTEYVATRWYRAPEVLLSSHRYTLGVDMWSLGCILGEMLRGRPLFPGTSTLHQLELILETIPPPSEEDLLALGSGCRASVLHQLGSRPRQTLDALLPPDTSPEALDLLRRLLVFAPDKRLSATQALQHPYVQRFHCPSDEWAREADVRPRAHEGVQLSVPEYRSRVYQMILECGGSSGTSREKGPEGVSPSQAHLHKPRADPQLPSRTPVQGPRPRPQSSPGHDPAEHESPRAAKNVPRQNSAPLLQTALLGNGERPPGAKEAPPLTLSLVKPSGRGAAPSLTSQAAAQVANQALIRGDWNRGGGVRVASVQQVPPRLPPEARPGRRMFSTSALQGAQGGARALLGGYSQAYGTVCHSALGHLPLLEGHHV
Method: as §1, §2

PRKCQ = biological target: T5, PRKCQ (Homo sapiens, UniProt Q04759)
T5 construct: purchased Ambit Biosciences (KINOMEscan)
Method: as §1, §2

CIT = biological target: T6, CIT (Homo sapiens, UniProt O14578); settings: for % Competition: 10 µM
T6 construct: purchased Ambit Biosciences (KINOMEscan)
Method: as §1, §2

BRAF = biological target: T7, BRAF (Homo sapiens, UniProt P15056)
T7 construct: purchased Ambit Biosciences (KINOMEscan)
Method: as §1, §2

EGFR(G719C) = biological target: T8, EGFR(G719C) (Homo sapiens, UniProt P00533, G719C); settings: for % Competition: 10 µM
T8 construct: purchased Ambit Biosciences (KINOMEscan)
Method: as §1, §2

T6 sequence (O14578 whole entry): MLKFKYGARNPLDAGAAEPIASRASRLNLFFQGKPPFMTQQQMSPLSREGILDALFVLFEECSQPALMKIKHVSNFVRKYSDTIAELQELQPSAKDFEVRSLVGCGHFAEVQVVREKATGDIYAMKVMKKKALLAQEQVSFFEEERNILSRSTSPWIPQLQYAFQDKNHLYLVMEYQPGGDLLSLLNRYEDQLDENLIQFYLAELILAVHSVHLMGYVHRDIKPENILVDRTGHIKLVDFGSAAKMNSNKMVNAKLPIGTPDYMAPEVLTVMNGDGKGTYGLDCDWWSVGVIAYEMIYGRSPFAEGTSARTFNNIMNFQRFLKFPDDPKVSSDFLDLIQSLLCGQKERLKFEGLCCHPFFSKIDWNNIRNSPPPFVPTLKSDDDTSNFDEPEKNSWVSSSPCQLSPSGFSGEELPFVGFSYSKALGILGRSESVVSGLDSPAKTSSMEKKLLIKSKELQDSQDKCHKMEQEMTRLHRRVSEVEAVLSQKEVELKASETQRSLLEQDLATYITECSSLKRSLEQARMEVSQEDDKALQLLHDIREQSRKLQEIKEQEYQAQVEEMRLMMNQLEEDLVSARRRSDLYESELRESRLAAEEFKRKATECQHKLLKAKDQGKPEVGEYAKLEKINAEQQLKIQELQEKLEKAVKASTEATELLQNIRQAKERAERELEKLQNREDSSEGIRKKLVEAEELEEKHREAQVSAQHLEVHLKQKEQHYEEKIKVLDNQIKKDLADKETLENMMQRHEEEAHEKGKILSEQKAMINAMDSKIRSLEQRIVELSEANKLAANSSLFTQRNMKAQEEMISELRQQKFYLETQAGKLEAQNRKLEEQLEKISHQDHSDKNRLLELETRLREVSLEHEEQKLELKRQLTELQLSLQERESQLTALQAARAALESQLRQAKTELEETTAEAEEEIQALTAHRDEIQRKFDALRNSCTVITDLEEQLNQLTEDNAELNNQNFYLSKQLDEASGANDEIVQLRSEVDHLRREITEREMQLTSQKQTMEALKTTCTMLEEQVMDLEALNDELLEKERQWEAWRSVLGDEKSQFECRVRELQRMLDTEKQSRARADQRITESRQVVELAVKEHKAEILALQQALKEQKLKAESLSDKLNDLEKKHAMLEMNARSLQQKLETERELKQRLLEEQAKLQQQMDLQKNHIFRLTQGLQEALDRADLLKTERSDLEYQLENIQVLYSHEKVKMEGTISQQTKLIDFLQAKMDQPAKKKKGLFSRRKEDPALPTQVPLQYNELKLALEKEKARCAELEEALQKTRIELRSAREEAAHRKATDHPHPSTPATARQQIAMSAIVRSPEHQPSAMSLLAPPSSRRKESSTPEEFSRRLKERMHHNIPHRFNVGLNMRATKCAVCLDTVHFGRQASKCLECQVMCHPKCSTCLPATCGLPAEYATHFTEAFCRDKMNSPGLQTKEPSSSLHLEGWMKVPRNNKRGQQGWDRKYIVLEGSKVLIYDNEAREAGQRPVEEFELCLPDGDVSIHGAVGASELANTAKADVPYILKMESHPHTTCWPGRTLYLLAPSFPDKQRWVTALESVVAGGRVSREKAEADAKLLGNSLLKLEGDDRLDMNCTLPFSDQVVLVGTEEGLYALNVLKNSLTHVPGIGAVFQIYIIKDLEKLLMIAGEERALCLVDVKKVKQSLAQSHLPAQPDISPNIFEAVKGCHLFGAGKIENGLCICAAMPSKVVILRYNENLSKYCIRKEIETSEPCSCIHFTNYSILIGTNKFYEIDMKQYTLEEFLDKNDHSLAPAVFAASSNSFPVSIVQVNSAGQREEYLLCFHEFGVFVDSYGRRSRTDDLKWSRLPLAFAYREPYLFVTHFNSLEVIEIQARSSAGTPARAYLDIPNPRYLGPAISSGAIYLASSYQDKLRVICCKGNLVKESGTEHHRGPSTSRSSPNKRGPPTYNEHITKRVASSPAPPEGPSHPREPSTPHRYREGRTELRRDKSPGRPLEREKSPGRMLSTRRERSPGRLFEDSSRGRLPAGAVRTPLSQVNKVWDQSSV
T5 sequence (Q04759 whole entry): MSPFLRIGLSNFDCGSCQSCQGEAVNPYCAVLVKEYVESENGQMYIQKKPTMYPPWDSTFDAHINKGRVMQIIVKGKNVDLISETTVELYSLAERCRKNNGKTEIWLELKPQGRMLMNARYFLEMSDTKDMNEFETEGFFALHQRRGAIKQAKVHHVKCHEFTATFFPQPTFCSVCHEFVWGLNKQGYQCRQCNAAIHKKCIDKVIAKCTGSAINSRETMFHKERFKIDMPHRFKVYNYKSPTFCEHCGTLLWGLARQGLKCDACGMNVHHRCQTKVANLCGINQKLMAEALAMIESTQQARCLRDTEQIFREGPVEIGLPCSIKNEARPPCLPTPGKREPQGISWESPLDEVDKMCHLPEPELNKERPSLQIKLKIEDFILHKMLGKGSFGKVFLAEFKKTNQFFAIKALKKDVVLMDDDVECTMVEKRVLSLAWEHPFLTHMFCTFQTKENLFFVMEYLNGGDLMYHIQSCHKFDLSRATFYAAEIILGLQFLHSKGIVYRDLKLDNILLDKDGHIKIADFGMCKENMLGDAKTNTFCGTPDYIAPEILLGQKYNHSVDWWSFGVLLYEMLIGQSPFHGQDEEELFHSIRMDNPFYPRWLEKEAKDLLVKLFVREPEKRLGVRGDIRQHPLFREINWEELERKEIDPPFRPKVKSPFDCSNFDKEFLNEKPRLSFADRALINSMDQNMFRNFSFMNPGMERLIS
T1 sequence (P49840 whole entry): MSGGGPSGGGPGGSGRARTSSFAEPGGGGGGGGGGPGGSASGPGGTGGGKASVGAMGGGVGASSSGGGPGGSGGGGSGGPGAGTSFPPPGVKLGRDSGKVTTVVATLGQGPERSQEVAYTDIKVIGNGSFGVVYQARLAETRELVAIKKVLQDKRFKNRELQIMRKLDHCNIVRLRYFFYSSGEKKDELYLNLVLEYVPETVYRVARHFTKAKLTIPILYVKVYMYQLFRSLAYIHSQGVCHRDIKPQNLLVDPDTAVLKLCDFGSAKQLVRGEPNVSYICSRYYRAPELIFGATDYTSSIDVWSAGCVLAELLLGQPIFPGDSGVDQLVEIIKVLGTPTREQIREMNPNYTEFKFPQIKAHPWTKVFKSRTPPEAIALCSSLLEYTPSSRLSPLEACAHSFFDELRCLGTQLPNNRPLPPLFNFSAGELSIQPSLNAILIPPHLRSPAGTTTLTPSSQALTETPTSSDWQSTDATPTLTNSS
T7 sequence (P15056 whole entry): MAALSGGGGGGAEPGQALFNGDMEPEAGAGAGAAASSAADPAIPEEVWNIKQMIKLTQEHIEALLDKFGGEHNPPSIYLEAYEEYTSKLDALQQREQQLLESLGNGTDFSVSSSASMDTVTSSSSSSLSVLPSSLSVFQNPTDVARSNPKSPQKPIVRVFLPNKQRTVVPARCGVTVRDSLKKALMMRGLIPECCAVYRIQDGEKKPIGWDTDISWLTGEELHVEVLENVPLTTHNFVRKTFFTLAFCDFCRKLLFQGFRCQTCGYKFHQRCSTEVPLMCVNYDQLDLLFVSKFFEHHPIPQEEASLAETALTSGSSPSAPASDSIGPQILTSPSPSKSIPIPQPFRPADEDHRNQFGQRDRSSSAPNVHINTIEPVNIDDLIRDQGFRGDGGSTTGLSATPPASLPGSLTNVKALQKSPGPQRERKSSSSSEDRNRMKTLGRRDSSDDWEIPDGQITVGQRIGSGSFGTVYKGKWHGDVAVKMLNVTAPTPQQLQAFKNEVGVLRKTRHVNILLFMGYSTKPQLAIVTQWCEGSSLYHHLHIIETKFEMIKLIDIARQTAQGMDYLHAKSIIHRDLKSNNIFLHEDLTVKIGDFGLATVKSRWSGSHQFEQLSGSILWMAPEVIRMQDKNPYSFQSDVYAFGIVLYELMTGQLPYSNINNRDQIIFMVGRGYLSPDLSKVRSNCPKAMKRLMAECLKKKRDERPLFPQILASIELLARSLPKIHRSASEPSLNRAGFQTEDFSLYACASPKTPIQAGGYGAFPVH

SMILES: Fc1ccc(-c2c(-c3ccncc3)[nH]c3nccnc23)cc1 [Compound 122]
- inhibition at 10 µM (GSK3A; GSK3A, 10 µM, read-out: % Competition): 98%
- inhibition at 10 µM (EPHB4; EPHB4, 10 µM, read-out: % Competition): 72%
- inhibition at 10 µM (MEK4; MEK4, 10 µM, read-out: % Competition): 87%
- inhibition at 10 µM (ERK8; ERK8, 10 µM, read-out: % Competition): 98%
- inhibition at 10 µM (PRKCQ; PRKCQ (PKC θ), 10 µM, read-out: % Competition): 78%
- % Competition (CIT): 99%
- inhibition at 10 µM (BRAF; BRAF, 10 µM, read-out: % Competition): 97%
- % Competition (EGFR(G719C)): 99%

SMILES: CC(O)CNc1cc(-c2[nH]c3cccnc3c2-c2ccc(F)cc2)ccn1 (stereo not shown) [Compound 140]
- inhibition at 10 µM (GSK3A; read-out: % Competition): < 50%
- inhibition at 10 µM (EPHB4; read-out: % Competition): < 50%
- inhibition at 10 µM (MEK4; read-out: % Competition): < 50%
- inhibition at 10 µM (ERK8; read-out: % Competition): < 50%
- % Competition (PRKCQ; PRKCQ (PKC θ), 10 µM): <50%
- inhibition at 10 µM (PRKCQ; read-out: % Competition): < 50%
- % Competition (CIT): 99%
- inhibition at 10 µM (BRAF; read-out: % Competition): 76%
- % Competition (EGFR(G719C)): 87%

SMILES: Fc1ccc(-c2c(-c3ccncc3)[nH]c3nccnc23)cc1 [RO1155697-000-005]
- inhibition at 10 µM (GSK3A; GSK3A, compound concentration 10 uM, read-out: Percent Competition): 98%
- inhibition at 10 µM (EPHB4; EPHB4, compound concentration 10 uM, read-out: Percent Competition): 72%
- inhibition at 10 µM (MEK4; MEK4, compound concentration 10 uM, read-out: Percent Competition): 87%
- inhibition at 10 µM (ERK8; ERK8, compound concentration 10 uM, read-out: Percent Competition): 98%
- inhibition at 10 µM (PRKCQ; PRKCQ, compound concentration 10 uM, read-out: Percent Competition): 78%
- Percent Competition (CIT; compound concentration 10 uM): 99%
- inhibition at 10 µM (BRAF; BRAF, compound concentration 10 uM, read-out: Percent Competition): 97%
- Percent Competition (EGFR(G719C); compound concentration 10 uM): 99%
